In patent publication US6379651B1, “Oral-topical dosage forms for delivering antibacterials/antibiotics to oral cavity to eradicate H. pylori as a concomitant treatment for peptic ulcers and other gastro-intestinal diseases” (priority 1995, dated 2002):

Tests used:
H. pylori [1] = conditions: in vivo; cited from earlier work
Campylobacter rectus = test: In vitro MIC, Campylobacter rectus; assay type: cell-based
Treponema denticola = test: In vitro MIC, Treponema denticola; assay type: cell-based
Helicobacter pylori = test: In vitro MIC, Helicobacter pylori; assay type: cell-based
[2] = Diabetic mouse wound healing model; assay type: in vivo; conditions: formulations of 10 mcg/ml to 1,000 mcg/ml
Procedure: Further, wound healing potential of the above bismuth compounds is evaluated using a diabetic mouse wound healing model (Matuszewska et al., Pharmaceutical Research 11(1):65-71 (1994), incorporated herein by reference).

[3] = in vivo; cited from earlier work
rat mesentery culture = test: In vitro rat mesentery culture wound closure model; assay type: cell-based; conditions: for concentrations of growth factors EGF and FGF: 10 mcg/mL to 1,000 mcg/mL in medium, 2% fetal calf serum; for wound closure: 10 mcg/mL to 1,000 mcg/mL, 24-hour, 48-hour and 72-hour, compared to the placebo
Excerpt: This tissue culture model is useful for gaining insights into growth factor interactions and wound healing.

H. pylori [4] = conditions: cited from earlier work
[5] = compared with placebo, cimetidine and ranitidine; cited from earlier work
[6] = Freeze-injured skin graft model; assay type: in vivo; conditions: for wound healing rates compared to placebo: Doses of 10 to 1000 mcg/mL; for wound healing in cryoinjured grafts: in vivo
[7] = in vivo; cited from earlier work; remark: listed apart in the source
[8] = Procedure: Artificial saliva was used (Table 9).
Artificial saliva is used (Table 9).
The test saliva is prepared by dissolving 0.500 g of the antibiotic or antibacterial agent in a 100 mL of the above artificial saliva. […] The denture materials that are exposed to artificial saliva containing the agent or placebo are evaluated.

Compound | eradication rate for H. pylori (H. pylori [1]) [%] | minimum effective concentrations (MICs) (Campylobacter rectus) [µg/mL] | minimum effective concentrations (MICs) (Treponema denticola) [µg/mL] | minimum effective concentrations (MICs) (Helicobacter pylori) [µg/mL] | wound healing compared to placebo [2] | absorption from the GI [3] | secretion in the saliva [3] | concentrations of growth factors EGF and FGF (rat mesentery culture) | wound closure (rat mesentery culture) | minimum inhibitory concentration (MIC) against H. pylori (H. pylori [4]) [µg/mL] | MIC against H. pylori, range (H. pylori [4]; range) [µg/mL] | relapse rates of duodenal ulcers [5] | wound healing rates compared to placebo [6] | wound healing in cryoinjured grafts [6] | steady-state blood levels unlikely to cause any neurotoxicity [7] | staining, discoloration or changes in texture of natural tooth and denture materials [8]
Cc1ncc([N+](=O)[O-])n1CCO [metronidazole] | 5 |  |  |  |  |  |  |  |  |  |  |  |  |  |  | 
beta-D-fructofuranosyl-oktakis (hydrogen sulfate) bismuth complex [Bismuth Sucrose Sulfate] |  | >256 | 32 | 16 |  |  |  |  |  |  |  |  |  |  |  | 
colloidal bismuth subcitrate [CBS] |  | 256 | 32 | 2 | heal faster | not absorbed significantly | produces no salivary concentrations | Significantly higher | significantly faster wound closure rate and complete closure | 8 | 4 to 32 | significantly lower relapse rates | significant increase | stimulates wound healing in cryoinjured grafts in a dose-related fashion | 50-100 | did not cause any staining, discoloration, or changes in texture
L-dihydro ascorbyl-tetrakis (hydrogen sulfate) bismuth complex [Bismuth Ascorbyl Sulfate] |  | 256 | 16 | 8 | heal faster |  |  | Significantly higher | significantly faster wound closure rate and complete closure |  |  |  | significant increase | stimulates wound healing in cryoinjured grafts in a dose-related fashion |  | 
CC[C@H]1OC(=O)[C@H](C)[C@@H](O[C@H]2C[C@@](C)(OC)[C@@H](O)[C@H](C)O2)[C@H](C)[C@@H](O[C@@H]2O[C@H](C)C[C@H](N(C)C)[C@H]2O)[C@](C)(OC)C[C@@H](C)C(=O)[C@H](C)[C@@H](O)[C@]1(C)O [Clarithromycin] |  |  |  |  |  |  | secreted in the saliva |  |  |  |  |  |  |  |  | 
